Experimental data from US10729659B2, “Nanogel-mediated drug delivery” (The Cleveland Clinic Foundation, priority 2012, dated 2020).
≈ marks a conversion by molar mass, not a printed value.

Tests used:
[1] = DAC stability in cell culture media; format: physicochemical; conditions: 50 μg/mL, DMEM with 15% FBS, 37° C.
Procedure: Samples were incubated as 2 mL aliquots at 37° C., collected at various time points and lyophilized. To extract DAC from lyophilized samples 3 mL of methanol was added and kept on orbital rotating shaker at 100 rpm in cold room overnight.
DAC was extracted from lyophilized samples by adding 3 mL of methanol and kept on an orbital rotating shaker at 100 rpm in cold room overnight.

MCF-7/Adr cells [2] = experiment: Cell viability assay, DAC solution vs DAC nanogel; format: cell-based; conditions: Homo sapiens, NCI/ADR-RES, read-out: IC50 value at day 12 post drug treatment
Procedure: Cytotoxicity of DAC in solution vs. DAC loaded nanogel was compared at day 5, 10 or 12 post drug additions in drug resistant cells. In a typical experiment; cells were seeded at 3000 cells/well in 96 well plates. 24 h post seeding, 0.1 mL cell culture media containing different concentrations of DAC solution or DAC nanogel was added and incubated for 3 d. Post incubation; cells were washed with 1×-DPBS and then replaced with drug free medium at every 48 h until cell viability was measured via an MTS assay kit (Promega CellTiter 96 AQueous Promega, Madison, Wis.). The effects of the drug on cell proliferation were calculated as the percentage cell growth vs. growth of control cells that received no drug treatment.
Cytotoxicity of DAC in solution vs. different DAC loaded nanogel formulations was compared at day 5, 10 or 12 post drug additions in drug resistant cells. In a typical experiment, cells were seeded at 3000 cells/well in 96 well plates. Twenty four hr post seeding, 0.1 mL cell culture media containing different concentrations of DAC solution or DAC nanogel was added and incubated for 3 d. […] Cell viability was measured using MTS (Promega CellTiter 96 AQueous Promega, Madison, Wis.). The effects of the drug on cell proliferation were calculated as the percentage cell growth vs. growth of control cells that received no drug treatment.

MCF-7/Adr cells [3] = experiment: Cellular uptake of dox; format: cell-based, human; conditions: DAC 50 ng/mL 24 h, then dox 1 μg/mL; 15 min to 12 h
Procedure: Drug resistant breast cancer cells were seeded in 24 well plates (1.2×10^6 cells/well). Post 48 h seeding, cells were pre-treated with DAC (50 ng/mL; 24 h); and then incubated with fixed concentration of dox (1 μg/mL) for indicated time points. Post drug incubation cell lysates in RIPA buffer was collected and lyophilized. Dox was extracted from lyophilized cell lysates using methanol as the solvent and analyzed by HPLC.

MDA-MB 231 cells = experiment: Physical characterization of exosomes from DAC treated cells; format: cell-based, human; conditions: exosomes from cells treated with DAC 0.5 μM, 24 h
Procedure: Exosome isolation protocol: MDA-MB 231 cells were grown in DMEM supplemented with 10% fetal bovine serum (FBS), and 1% antibiotics. Prior to use in cell culture; the cell culture medium was depleted of endogenous exosomes present in FBS. Exosomes depleted media were prepared by 16 h of ultracentrifugation of cell culture medium supplemented with 50% FBS at 100, 000×g and filtered through 0.2 μm filter. Through out this process sterile conditions were maintained.
To isolate the exosomes from cells treated with DAC, cells were cultured in 10 cell culture dishes (150×25 mm), When the cells were at 70% confluency, the cells were washed with 1×PBS, re-fed with endogenous exosomes depleted media containing DAC (0.5 μM) and incubated for 24 h. Because of small production of exosomes from cultured cells, culture media from all the DAC treated plates were pooled for exosome isolation. All the exosome isolation procedures were done at 4° C. Culture supernatants were first centrifuged at 300×g for 10 min to pellet the cells. To remove the dead cells, supernatant was centrifuged at 2,000×g for 15 min (Sorvall Legend RTcentrifuge, Thermo Electron Corp. Waltham, Mass.). Supernatant was pipetted off and transferred to pre-cooled polycarbonate tubes appropriate for 50.1Ti fixed angle ultracentrifugation rotor (Beckman Coulter Inc., Fullerton, Calif., USA) and centrifuged at 10,000×g for 30 min to remove cell debris. Pellet was discarded and supernatant was aliquoted to several ultracentrifuge tubes and centrifuged at 110,000×g for 70 min to pellet exosomes. Supernatant was discarded. The pellet in each tube was re-suspended in 1 mL PBS and pooled in to single ultracentrifuge tube and centrifuged at 110,000×g for 70 min. […]
Five micro-liter of PFA fixed exosome suspension was dropped on 200 mesh formvar—carbon coated EM grid (grid size: 97 μm) (TEDPELLA, Redding, Calif., USA) and exosomes were allowed to adsorb to the grids by drying the suspension at room temperature for 20-30 min. […] From TEM images sizes of exosomes were measured using Image J software.

[4] = cited from earlier work

Nc1ncn([C@H]2C[C@H](O)[C@@H](CO)O2)c(=O)n1 [DAC, 5-aza-2′-deoxycytidine]
No detectable levels of DAC at [1]: 8 h
DAC degraded within an hour ([1]; 1 h): 60%
IC50 (MCF-7/Adr cells [2]): 0.434 µg/mL (≈ 1.9 µM)
Uptake of dox in DAC pre-treated cells vs dox alone (MCF-7/Adr cells [3]): higher increase in uptake of dox
Hydrodynamic diameter of exosomes (MDA-MB 231 cells): 495 nm
PI of exosomes (MDA-MB 231 cells): 0.61
Exosome size by transmission electron micrograph (MDA-MB 231 cells; in nm (unit assumed)): 97.2±8.0
Half-life ([4]; in humans): 10 to 35 min
Clearance ([4]; in vivo): very high clearance
